Broadly, the solubility is the concentration that dissolves in the medium under given conditions. Low values mean a poorly soluble substance, high ones a readily soluble substance. The term EC50 denotes the concentration at which the effect is half-maximal. The low end stands for a more potent agent, the high end for a less potent agent.

Starred links: 1 amine or outer side, 2 acyl side, 3 side chain; linkers in the order of their positions; H or OH if unused. Non-standard residues stand in square brackets, D forms with d. Residues, ends and D or L forms follow the SMILES beside them. Groups on a side chain read outwards from the residue. *: point of attachment. C18 diacid = O=C(O)CCCCCCCCCCCCCCCCC(=O)*; C17 diacid = O=C(O)CCCCCCCCCCCCCCCC(=O)*; γGlu = O=C(O)[C@H](CCC(=O)[*:2])N[*:1]; NMeY = CN[C@@H](Cc1ccc(O)cc1)C(=O)O; AEEA = NCCOCCOCC(=O)O; Aib = CC(C)(N)C(=O)O

The results in this text go back to patent US20230143604A1, “QW DOSING OF GIP RECEPTOR AGONIST PEPTIDE COMPOUNDS AND USES THEREOF” (TAKEDA PHARMACEUTICAL COMPANY LIMITED, priority 2020, published 2023).

The nature of data set [1]: Human plasma protein binding (PPB). Particulars: for free unbound peptide in human plasma (in words): judged for once per week (QW) dosing. It is filed as in vitro ADME. Here is the method: Stock solutions: (1000 μM) of the peptides are prepared in DMSO.
Human plasma (mixed gender; containing K2-EDTA as anti-coagulant; pre-adjusted to pH 7.4—NB alternative species may be used) is spiked individually with each test peptide (1000 nmol/L), sampled for analysis and then incubated (n=4) at 37° C. in a water bath for 30 minutes. Following the incubation period, the plasma is sampled for analysis, then transferred to ultracentrifugation tubes and centrifuged (n=3) at […] and 4° C. for 3 hours, after which the supernatant is sampled for analysis. An additional aliquot of the supernatant is taken at the end of the centrifugation period to determine the total protein concentration. An aliquot of the incubated plasma will be stored at 4° C. for 3 hours and then sampled for analysis. At the point of sampling, all samples are matrix-matched, treated with ice-cold acetonitrile/methanol (4:1 (vfv)) containing internal standard, centrifuged al 2000 g and 4° C. for 10 minutes and stored prior to LC-MS/MS analysis. An appropriate positive control compound control will be incubated and centrifuged in parallel; control plasma is also centrifuged to generate samples for matrix-matching. Fraction unbound in plasma (Fuplasma) values is determined by comparison of the analyte response in plasma to the analyte response in the supernatant, determined via peak area response ratios.
The samples are analyzed by LC-MS/MS using a 6500 (or equivalent) triple quadrupole mass spectrometer (AB Sciex) coupled to an appropriate Liquid Chromatography (LC) system. Protein binding and stability values are determined via peak area ratios using multiple reaction monitoring (MRM) parameters following compound optimisation. Multiple reaction monitoring (MRM) is a highly sensitive method of targeted mass spectrometry (MS) that can be used to selectively detect and quantify peptides based on the screening of specified precursor peptide-to-fragment ion transitions.

Data set [2] in a line: Dog plasma protein binding (PPB). The data set is classed as in vitro ADME. Particulars: pH 7.4; fraction unbound; dog serum; read-out: Dog PPB (FUplasma). An excerpt: Dog PPB values presented below are obtained essentially as described for Human PPB samples, with the difference being that dog serum is used instead of human serum. Table 10 is provided with the values of (Fu,plasma) as fraction unbound expressed as a percentage compared to the percent bound. i.e. if the value is 0.0123, then the fraction unbound is […], which is 1.23% of the peptide is unbound and 98.77% is bound in plasma. Methods and analysis for performing the dog PPB protocol and results are the same as noted herein as for the Human PPB protocol and analysis.

Another data set is described as follows: physchem. The essentials: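 3 mg of peptide treated with 100 μL portions of 200 mM phosphate buffer pH 7.4, sonicating/vortexing up to 1 min, with further buffer added until fully dissolved. Solubility then quantified by HPLC.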
The next data set deals with T1, human GLP-1R (Homo sapiens, UniProt P43220).
T1 construct: HEK-293T cells overexpressing full-length human GLP-1R; FLAG (N); host or cells: HEK-293T
T1 sequence (P43220 24-463): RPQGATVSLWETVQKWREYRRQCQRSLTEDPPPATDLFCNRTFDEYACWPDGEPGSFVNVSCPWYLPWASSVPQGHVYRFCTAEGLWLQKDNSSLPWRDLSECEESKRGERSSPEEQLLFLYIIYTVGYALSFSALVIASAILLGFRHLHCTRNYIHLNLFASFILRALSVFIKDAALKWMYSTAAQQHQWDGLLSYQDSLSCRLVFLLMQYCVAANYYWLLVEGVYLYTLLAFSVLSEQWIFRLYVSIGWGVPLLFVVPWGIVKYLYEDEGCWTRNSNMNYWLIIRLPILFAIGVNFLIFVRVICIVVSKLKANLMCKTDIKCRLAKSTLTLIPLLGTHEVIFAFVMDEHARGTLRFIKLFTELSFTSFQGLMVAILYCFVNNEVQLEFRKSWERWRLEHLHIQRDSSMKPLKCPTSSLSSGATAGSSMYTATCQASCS
Nature of the data set: Human GLP1R agonist activity, intracellular cAMP accumulation. It is filed as cell-based. Particulars: Human GLP1R cAMP EC50, HEK293T (nM), HEK-293T cells overexpressing human GLP-1R, 1 hr. The essentials: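 Frozen assay-ready cells washed and resuspended at 4×10^5 cells/mL in Krebs Ringer buffer, then incubated with compound 1 hr at room temperature in the dark. cAMP read by HTRF (anti-cAMP antibody, d2-cAMP tracer). Normalised to 1 nm GLP-1 (100%) and DMSO (0%).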

Another data set relates to C57BL/6J mice. Nature of the data set: Oral glucose tolerance test (OGTT). The data set is classed as in vivo. Particulars: 3 nmol/kg s.c., 24 hours before glucose loading. The essentials: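 Peptide or vehicle given s.c. at 0.1, 0.3, 3 or 10 nmol/kg (peptide-dependent), 24 h before oral 50% dextrose at 5 ml/kg unless stated otherwise. Blood glucose read at 0, 15, 30 and 60 min. % inhibition = (1−(AUC cpd−AUC naïve)/(AUC veh−AUC naïve))×100.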

[3] abbreviates: both sexes, pH 7.4, fraction unbound, human plasma, 1000 nmol/L peptide, ultracentrifugation, read-out: Human PPB (FUplasma).

As to `CC[C@H](C)[C@H](NC(=O)[C@H](CO)NC(=O)[C@H](Cc1ccc(O)cc1)NC(=O)[C@H](CC(=O)O)NC(=O)[C@H](CO)NC(=O)[C@@H](NC(=O)[C@H](Cc1ccccc1)NC(=O)[C@@H](NC(=O)CNC(=O)[C@H](CCC(=O)O)NC(=O)C(C)(C)NC(=O)[C@H](Cc1ccc(O)cc1)NC)[C@@H](C)O)[C@@H](C)CC)C(=O)N[C@@H](C)C(=O)N[C@@H](CC(C)C)C(=O)N[C@@H](CC(=O)O)C(=O)N[C@@H](CCCNC(=N)N)C(=O)NC(C)(C)C(=O)N[C@@H](C)C(=O)N[C@@H](CCC(N)=O)C(=O)NC(C)(C)C(=O)N[C@@H](CCCCNC(=O)COCCOCCNC(=O)COCCOCCNC(=O)CC[C@H](NC(=O)CC[C@H](NC(=O)CCCCCCCCCCCCCCCC(=O)O)C(=O)O)C(=O)O)C(=O)N[C@@H](Cc1ccccc1)C(=O)N[C@H](C(=O)N[C@@H](CC(N)=O)C(=O)N[C@@H](Cc1c[nH]c2ccccc12)C(=O)N[C@@H](CC(C)C)C(=O)N[C@@H](CC(C)C)C(=O)N[C@@H](C)C(=O)N[C@@H](CCC(N)=O)C(=O)N[C@@H](CCCNC(=N)N)C(N)=O)C(C)C` [Compound 8] (H-[NMeY][Aib]EGTFISDYSIALDR[Aib]AQ[Aib]K([AEEA-AEEA-γGlu-γGlu-C17 diacid])FVNWLLAQR-NH2), the fraction unbound in data set [1] (setting [3]) amounted to 0.0009; in data set [2], 0.0016. In addition, the “free unbound peptide in human plasma (in words)” value in data set [1] is “optimum free unbound peptide”. Moreover, the solubility in the data set “physchem” (pH 7.4, aqueous buffer) was at least 15 mg/mL.
Regarding `CC[C@H](C)[C@H](NC(=O)[C@H](CO)NC(=O)[C@H](Cc1ccc(O)cc1)NC(=O)[C@H](CC(=O)O)NC(=O)[C@H](CO)NC(=O)[C@@H](NC(=O)[C@H](Cc1ccccc1)NC(=O)[C@@H](NC(=O)CNC(=O)[C@H](CCC(=O)O)NC(=O)C(C)(C)NC(=O)[C@H](Cc1ccc(O)cc1)NC)[C@@H](C)O)[C@@H](C)CC)C(=O)N[C@@H](C)C(=O)N[C@@H](CC(C)C)C(=O)N[C@@H](CC(=O)O)C(=O)N[C@@H](CCCNC(=N)N)C(=O)NC(C)(C)C(=O)N[C@@H](C)C(=O)N[C@@H](CCC(N)=O)C(=O)NC(C)(C)C(=O)N[C@@H](CCCCNC(=O)COCCOCCNC(=O)COCCOCCNC(=O)CC[C@H](NC(=O)CC[C@H](NC(=O)CCCCCCCCCCCCCCCC(=O)O)C(=O)O)C(=O)O)C(=O)N[C@@H](Cc1ccccc1)C(=O)N[C@H](C(=O)N[C@@H](CC(N)=O)C(=O)N[C@@H](Cc1c[nH]c2ccccc12)C(=O)N[C@@H](CC(C)C)C(=O)N[C@@H](CC(C)C)C(=O)N[C@@H](C)C(=O)N[C@@H](CCC(N)=O)C(=O)N[C@@H](CCCNC(=N)N)C(=O)NCC(=O)O)C(C)C` [Compound 36] (H-[NMeY][Aib]EGTFISDYSIALDR[Aib]AQ[Aib]K([AEEA-AEEA-γGlu-γGlu-C17 diacid])FVNWLLAQRG-OH), the fraction unbound in data set [1] (setting [3]) is under 0.002; in data set [2], 0.0034. Also, the solubility in the data set “physchem” (pH 7.4) was at least 15 mg/mL; in “physchem” (pH 7.4, aqueous buffer), at least 60 mg/mL.
On the same counts, the results for `CC[C@H](C)[C@H](NC(=O)[C@H](CO)NC(=O)[C@H](Cc1ccc(O)cc1)NC(=O)[C@H](CC(=O)O)NC(=O)[C@H](CO)NC(=O)[C@@H](NC(=O)[C@H](Cc1ccccc1)NC(=O)[C@@H](NC(=O)CNC(=O)[C@H](CCC(=O)O)NC(=O)C(C)(C)NC(=O)[C@H](Cc1ccc(O)cc1)NC)[C@@H](C)O)[C@@H](C)CC)C(=O)N[C@@H](C)C(=O)N[C@@H](CC(C)C)C(=O)N[C@@H](CC(=O)O)C(=O)N[C@@H](CCCNC(=N)N)C(=O)NC(C)(C)C(=O)N[C@@H](Cc1c[nH]cn1)C(=O)N[C@@H](CCC(N)=O)C(=O)NC(C)(C)C(=O)N[C@@H](CC(N)=O)C(=O)N[C@@H](Cc1ccccc1)C(=O)N[C@H](C(=O)N[C@@H](CC(N)=O)C(=O)N[C@@H](Cc1c[nH]c2ccccc12)C(=O)N[C@@H](CC(C)C)C(=O)N[C@@H](CC(C)C)C(=O)N[C@@H](C)C(=O)N[C@@H](CCCCNC(=O)COCCOCCNC(=O)COCCOCCNC(=O)CC[C@H](NC(=O)CC[C@H](NC(=O)CCCCCCCCCCCCCCCCC(=O)O)C(=O)O)C(=O)O)C(=O)N[C@@H](CCCNC(=N)N)C(N)=O)C(C)C` [Compound 19] (H-[NMeY][Aib]EGTFISDYSIALDR[Aib]HQ[Aib]NFVNWLLAK([AEEA-AEEA-γGlu-γGlu-C18 diacid])R-NH2) are 0.0011, 0.0005, at least 15 mg/mL and at least 30 mg/mL.
As to `CC[C@H](C)[C@H](NC(=O)[C@H](CO)NC(=O)[C@H](Cc1ccc(O)cc1)NC(=O)[C@H](CC(=O)O)NC(=O)[C@H](CO)NC(=O)[C@@H](NC(=O)[C@H](Cc1ccccc1)NC(=O)[C@@H](NC(=O)CNC(=O)[C@H](CCC(=O)O)NC(=O)C(C)(C)NC(=O)[C@H](Cc1ccc(O)cc1)NC)[C@@H](C)O)[C@@H](C)CC)C(=O)N[C@@H](C)C(=O)N[C@@H](CCCCNC(=O)CNC(=O)CNC(=O)CNC(=O)CNC(=O)CNC(=O)CCCCCCCCCCCCCCCCCCC(=O)O)C(=O)N[C@@H](CC(=O)O)C(=O)N[C@@H](CCCNC(=N)N)C(=O)NC(C)(C)C(=O)N[C@@H](C)C(=O)N[C@@H](CCC(N)=O)C(=O)NC(C)(C)C(=O)N[C@@H](CC(N)=O)C(=O)N[C@@H](Cc1ccccc1)C(=O)N[C@H](C(=O)N[C@@H](CC(N)=O)C(=O)N[C@@H](Cc1c[nH]c2ccccc12)C(=O)N[C@@H](CC(C)C)C(=O)N[C@@H](CC(C)C)C(=O)N[C@@H](C)C(=O)N[C@@H](CCC(N)=O)C(=O)N[C@@H](CO)C(=O)N1CCC[C@H]1C(=O)N[C@@H](CO)C(=O)N[C@@H](CO)C(=O)NCC(=O)N[C@@H](C)C(=O)N1CCC[C@H]1C(=O)N1CCC[C@H]1C(=O)N1CCC[C@H]1C(=O)N[C@@H](CO)C(=O)O)C(C)C` [Compound 40], the EC50 at human GLP-1R came out at 5.6 nM. Also, the “Oral Glucose Tolerance Test Percent decrease in blood glucose AUC (%) over 60 mins” value with C57BL/6J mice is 102% (3 nmol/kg). Besides, the “Human PPB (FUplasma)” value in data set [1] (fraction unbound, human plasma, 1000 nmol/L peptide, ultracentrifugation) is under 0.002. Moreover, in data set [2], the fraction unbound at 30 min, 1000 nmol/L turned out to be 0.0004.
Regarding `CC[C@H](C)[C@H](NC(=O)[C@H](CO)NC(=O)[C@H](Cc1ccc(O)cc1)NC(=O)[C@H](CC(=O)O)NC(=O)[C@H](CO)NC(=O)[C@@H](NC(=O)[C@H](Cc1ccccc1)NC(=O)[C@@H](NC(=O)CNC(=O)[C@H](CCC(=O)O)NC(=O)C(C)(C)NC(=O)[C@H](Cc1ccc(O)cc1)NC)[C@@H](C)O)[C@@H](C)CC)C(=O)N[C@@H](C)C(=O)N[C@@H](CC(C)C)C(=O)N[C@@H](CC(=O)O)C(=O)N[C@@H](CCCNC(=N)N)C(=O)NC(C)(C)C(=O)N[C@@H](CCCCNC(=O)COCCOCCNC(=O)COCCOCCNC(=O)CC[C@H](NC(=O)CC[C@H](NC(=O)CCCCCCCCCCCCCCCC(=O)O)C(=O)O)C(=O)O)C(=O)N[C@@H](CCC(N)=O)C(=O)NC(C)(C)C(=O)N[C@@H](CC(N)=O)C(=O)N[C@@H](Cc1ccccc1)C(=O)N[C@H](C(=O)N[C@@H](CC(N)=O)C(=O)N[C@@H](Cc1c[nH]c2ccccc12)C(=O)N[C@@H](CC(C)C)C(=O)N[C@@H](CC(C)C)C(=O)N[C@@H](C)C(=O)N[C@@H](CCC(N)=O)C(=O)N[C@@H](CO)C(=O)N1CCC[C@H]1C(=O)N[C@@H](CO)C(=O)N[C@@H](CO)C(=O)NCC(=O)N[C@@H](C)C(=O)N1CCC[C@H]1C(=O)N1CCC[C@H]1C(=O)N1CCC[C@H]1C(=O)N[C@@H](CO)C(N)=O)C(C)C` [Compound 11] (H-[NMeY][Aib]EGTFISDYSIALDR[Aib]K([AEEA-AEEA-γGlu-γGlu-C17 diacid])Q[Aib]NFVNWLLAQSPSSGAPPPS-NH2), the fraction unbound at 30 min, 1000 nmol/L in data set [1] (setting [3]) is 0.0038; in data set [2], at most 0.0024. Besides, the “free unbound peptide in human plasma (in words)” value in data set [1] is recorded as “optimum free unbound peptide”. Moreover, the solubility in the data set “physchem” (pH 7.4, aqueous buffer, pH 7.4 Phosphate Buffer - Solubility, 200 mM Phosphate buffer pH 7.4) was at least 30 mg/mL; in the data set “physchem” (pH 7.4, solubility in phosphate buffer at pH 7.4, 200 mM phosphate buffer pH 7.4), at least 15 mg/mL.
